Patent US4734282A, “Rodenticidal compositions containing 1,4-naphthoquinone derivatives” (priority 1986, dated 1988)
Where “and” joins values, the source holds several entries; their conditions need not be identical. Equal entries are not always repeated. Where two headings read alike, the source gives them in different places.

Key:
[1] = tested on: vitamin K-dependent carboxylation; assay: in vitro rat hepatic microsomal vitamin K-dependent carboxylation of endogenous substrate, inhibition by vitamin K antagonists; type: biochemical; settings: for Slope (% Inhibition/Concentration), mean ± S.D.: slope parameter s of logistic function; for IO (percent inhibition when C = 0), mean: third fit parameter of logistic function
Method: (§1) The procedures for preparation of vitamin K-dependent carboxylase and assay of carboxylation were similar to those described in other laboratories (J. Biol. Chem. 251, 2770-2776; Biochim. Biophys. Acta 499, 181-193). Each animal was studied under both control and inhibitory conditions. The rats were rendered unconscious with nitrogen, the liver was quickly excised and minced in a total volume of 2.0 ml ice cold buffer I (0.25M sucrose, 0.025M imidazole, pH 7.20) per gram of liver. The liver was homogenized using 4 passes of a Teflon pestle (clearance 0.15-0.23 mm; Arthur H. Thomas Co., Philadelphia, Pa.) at 300 rpm. The post-mitochondrial supernatant and microsomal pellet were prepared by a published procedure (J. Biol. Chem. 251, 2770-2776). The microsomal pellet was resuspended in buffer II (0.25 M sucrose, 0.025M imidazole, 0.080M KCl, pH 7.20). This suspension supplied both the enzymes (vitamin K-dependent carboxylase and enzymes for vitamin K biotransformations) and endogenous substrates (precursors of vitamin K-dependent proteins) of interest. Microsomal suspension protein concentration was determined by the method of Bradford (Anal. Biochem. 72, 248-254) as described for Bio-Rad reagent and adjusted to approximately 15 mg/ml in buffer II.
(§2) Control, blank, and experimental reaction mixtures were made for each experiment. Control and blank reaction mixtures were made up with vitamin K and without vitamin K, respectively. Experimental reaction mixtures contained both vitamin K and a vitamin K antagonist. The control reaction mixture contained 3.00 ml of microsomal suspension, 0.81 ml of buffer II, 1.20 ml of an ATP-generating system (final concentrations: 1 mM ATP, 10 mM phosphocreatine, 2.5 mM Mg[acetate]2 ·4H2 O, 20 μg/ml creatine phosphokinase [52 U/ml]), 0.60 ml of NADH (final concentration 2 mM), 0.30 ml of dithiothreitol (final concentration 7 mM) dissolved in buffer II, 0.060 ml of NaH^14 CO3 (1.0 μCi/μl; added 0.5 min prior to reaction initiation), and at the time of reaction initiation 0.030 ml of vitamin K1 (final concentration 20 μg/ml) diluted in 0.85% sodium chloride solution. This vitamin K concentration is associated with maximal in vitro incorporation of added H^14 CO3 into vitamin K-dependent substrate proteins (J. Biol. Chem. 251, 2770-2776). The blank reaction mixture consisted of the same components except that vitamin K was replaced by an equal volume of isotonic saline. The experimental reaction mixtures were made up in the same way as the control reaction mixtures with the exceptions that: (1) a volume of buffer II was replaced by a volume of buffer II containing an inhibitor of vitamin K-dependent carboxylation, and (2) all individual volumes were two-thirds of those in the control reaction mixtures. […] Chloro-K1 was formulated as an oil-in-water emulsion with Tween 80 (5% v/v final concentration), while chloro-K3 was formulated as a suspension in Tween 80 (5% v/v final concentration) (Molecular Pharmacology 10, 373-380).
(§3) Reaction mixtures were incubated for 5 minutes at 100 excursions per minute in a reciprocating shaker water bath at 27° . After addition of vitamin K or saline, serial samples (0.45 ml each) were collected from each control and blank reaction tube at 2, 4, 6, 8, 10, 12, 14, 16, 30, 60, 90, and 120 minutes, and from each experimental reaction tube at 2, 4, 6, 8, 10, 12, 14, and 16 minutes. Each 0.45 ml sample was transferred to a tube containing 1 ml of ice-cold 10% TCA. The TCA-precipitated ^14 C-containing protein pellet was then prepared as previously described (J. Biol. Chem. 251, 2770-2776) and radioactivity was determined in an Intertechnique (Plaisir, France) liquid scintillation spectrometer using the external standard method of quench correction.

[2] = tested on: prothrombin complex activity; assay: in vivo prothrombin complex activity (PCA), its degradation and synthesis rate, from prothrombin time; design: species or system rat; settings: for PCA° (steady-state prothrombin complex activity before warfarin) / kd (first-order rate constant for degradation of PCA) / R°Syn (rate of synthesis of PCA): individual pretreated rat; for kd (first-order rate constant for degradation of PCA): after 2 mg/kg i.v. warfarin; for R°Syn (rate of synthesis of PCA): PCA° × kd; for reduction in R°Syn: vs normal rats
[3] = tested on: vitamin K-dependent carboxylation; assay: in vitro vitamin K-dependent carboxylation in liver microsomes of pretreated rats; type: biochemical, rat; settings: for Normalized P∞ / V/KM (intrinsic formation rate of carboxylated vitamin K-dependent proteins): individual pretreated rat; for V/KM (intrinsic formation rate of carboxylated vitamin K-dependent proteins): liver microsomes about 22 hours after warfarin
Method: as §1, §2
as §3, with “correction. […]” for “correction.”

[4] = tested on: prothrombin complex activity; settings: 2 mg/kg sodium warfarin i.v., approximately 19 hours prior to sacrifice; cited from earlier work
rats = settings: cited from earlier work
[5] = percent inhibition of vitamin K-dependent carboxylation vs concentration, logistic fit per animal, vitamin K1 20 μg/ml, 27°, read-out: IC50 (mean ± S.D.)
[6] = range among individual rats, read-out: IC50 (range)

O=C1C(Cl)=CC(=Nc2ccc(O)cc2)C=C1Cl [2,6-DIP, 2,6-dichloroindophenol sodium]
IC50 [1, 5]: 116 ± 39.2 µM
Slope (% Inhibition/Concentration), range ([1]; range among individual rats): 0.940-1.36 % Inhibition/Concentration
IC50 [1, 6]: 78.1 to 160 µM
Slope (% Inhibition/Concentration), mean ± S.D. [1]: 1.13 ± 0.174 % Inhibition/Concentration

S=C=Nc1cccc2ccccc12 [ANIT, α-naphthylisothiocyanate]
PCA° (steady-state prothrombin complex activity before warfarin) [2]: 56.1% and 56%
kd (first-order rate constant for degradation of PCA) [2]: 3.19e-05 s⁻¹
R°Syn (rate of synthesis of PCA) [2]: 155 %/day
reduction in R°Syn [2]: approximately 53%
Normalized P∞ [3]: 15.59 dpm ^14 C incorporated/mg prot
V/KM (intrinsic formation rate of carboxylated vitamin K-dependent proteins) [3]: 0.1104 min⁻¹
increase in normalized P∞ ([3]; one treated rat vs normal): approximately 50%

ClC(Cl)(Cl)Cl [CCl4, carbon tetrachloride]
average turnover time of PCA ([2]; group average): 3.27 ± 1.34 h
biologic half-life of PCA ([2]; group average): 2.27±0.94 hours
kd, average of treated rats ([2]; group average): 9.83e-05 ± 5.43e-05 s⁻¹
kd (first-order rate constant for degradation of PCA) ([2]; listed as OCl4): 6.92e-05 s⁻¹ and 0.0001609 s⁻¹ and 6.82e-05 s⁻¹
R°Syn (rate of synthesis of PCA) ([2]; listed as OCl4): 101 %/day and 137 %/day
PCA° (steady-state prothrombin complex activity before warfarin) ([2]; listed as OCl4): 16.9% and 9.9% and 23.4%
reduction in R°Syn [2]: approximately 62%
Normalized P∞ [3]: 6.58 dpm ^14 C incorporated/mg prot and 9.86 dpm ^14 C incorporated/mg prot and 9.04 dpm ^14 C incorporated/mg prot
V/KM (intrinsic formation rate of carboxylated vitamin K-dependent proteins) [3]: 0.0798 min⁻¹ and 0.0944 min⁻¹ and 0.1257 min⁻¹
reduction in V/KM ([3]; two rats receiving 1.0 ml CCl4/kg): 20-30%

C/C(=C\CC1=C(Cl)C(=O)c2ccccc2C1=O)CCC[C@H](C)CCC[C@H](C)CCCC(C)C [Chloro-K1, 2-Chloro-3-phytyl-1,4-naphthoquinone]
IC50 [1, 5]: 285 ± 89.3 µM
Slope (% Inhibition/Concentration), range ([1]; range among individual rats): 0.469-0.898 % Inhibition/Concentration
IC50 [1, 6]: 171 to 393 µM
Slope (% Inhibition/Concentration), mean ± S.D. [1]: 0.634 ± 0.159 % Inhibition/Concentration

O=C1C=C(Cl)C(=O)c2ccccc21 [Chloro-K3, 2-chloro-1,4-naphthoquinone]
times more potent than warfarin ([1]; in vitro rat hepatic vitamin K-dependent carboxylation system): 45 times
IC50 [1, 5]: 146 ± 62.1 µM
Slope (% Inhibition/Concentration), range ([1]; range among individual rats): 0.738-1.55 % Inhibition/Concentration
IC50 [1, 6]: 100 to 236 µM
Slope (% Inhibition/Concentration), mean ± S.D. [1]: 1.20 ± 0.340 % Inhibition/Concentration

O=C1c2ccccc2C(=O)C1c1ccccc1 [Phenindione, phenindione]
IC50 [1, 5]: 19 ± 11.2 µM
Slope (% Inhibition/Concentration), range ([1]; range among individual rats): 0.269-0.963 % Inhibition/Concentration
IC50 [1, 6]: 7.36 to 30.2 µM
Slope (% Inhibition/Concentration), mean ± S.D. [1]: 0.475 ± 0.330 % Inhibition/Concentration

CCC1(c2ccccc2)C(=O)NC(=O)NC1=O [Phenobarbital, Phenobarbital sodium]
PCA° (steady-state prothrombin complex activity before warfarin) [2]: 143.1% and 102.7%
kd (first-order rate constant for degradation of PCA) [2]: 4.31e-05 s⁻¹ and 4.77e-05 s⁻¹
R°Syn (rate of synthesis of PCA) [2]: 533 %/day and 423 %/day
average increase in PCA° beyond normal rats ([2]; two treated rats vs four normal rats): 38%
average increase in R°Syn beyond normal rats ([2]; two treated rats vs normal rats): 44%
Normalized P∞ [3]: 4.92 dpm ^14 C incorporated/mg prot and 5.86 dpm ^14 C incorporated/mg prot
V/KM (intrinsic formation rate of carboxylated vitamin K-dependent proteins) [3]: 0.1174 min⁻¹ and 0.1586 min⁻¹

Oc1c(Cl)c(Cl)nc(Cl)c1Cl [TCP, 2,3,5,6-Tetrachloropyridin-4-ol]
difference between IC50 of most potent (TCP) and least potent (warfarin) compound [1]: approximately 5,000 fold
IC50 ([1]; as printed in discussion text, read-out: average IC50): 1.23 µM
IC50 [1, 5]: 1.23 ± 0.24 µM
Slope (% Inhibition/Concentration), range ([1]; range among individual rats): 0.734-1.02 % Inhibition/Concentration
IC50 [1, 6]: 0.89 to 1.44 µM
Slope (% Inhibition/Concentration), mean ± S.D. [1]: 0.884 ± 0.117 % Inhibition/Concentration

CC(=O)CC(c1ccccc1)c1c(O)c2ccccc2oc1=O (stereo not shown) [Warfarin, warfarin]
Slope (% Inhibition/Concentration), range ([1]; range among individual rats): 0.637-2.20 % Inhibition/Concentration
IO (percent inhibition when C = 0), mean [1]: 8.89 ± 3.77%
IO (percent inhibition when C = 0), mean ([1]; listed as warfarin): 8.9%
IO (percent inhibition when C = 0), range ([1]; third fit parameter, range among rats): 2.74-13.1%
IC50 ([1]; warfarin, logistic fit with IO as third parameter, read-out: IC50 (mean ± S.D.)): 6630 ± 2850 µM
plasma prothrombin complex activity at the time of sacrifice [4]: ~6 % of normal
LD50 (may actually be as high as) (rats; in rats): 10 to 50 mg/kg
LD50 (assumed) (rats; intravenously administered, assumed value): 0.2 mg/kg
